The record followed here is the supplement of paper PMC10307832.

Holding throughout (experiment): relative viability (nuclei count vs DMSO), 5 days (fraction); higher = more cells survive
Compound in assay [1]: N=C1NC(=O)/C(=C/c2ccc(O)cc2)S1 [Mirin] + CS(=O)(=O)N1CCN(Cc2cc3nc(-c4cccc5[nH]ncc45)nc(N4CCOCC4)c3s2)CC1 [Pictilisib] (partner 1 µM)
In a few lines: (§1)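 Lung cancer cell lines in 1536-well plates were dosed by pin tool the day after seeding, either with one drug alone or with a fixed anchor-drug dose plus five library-drug doses (not always all listed) in √10 steps. After 5 days, cells were fixed and their nuclei stained in one step (final 0.05% Triton X-100, 1% formaldehyde, 1 ug/ml Hoechst), then counted on 4× images. Relative viability is the nuclei count in treated wells divided by that in vehicle wells. Values are medians of duplicate plates.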

Compound in assay [2]: CCn1c(-c2nonc2N)nc2cnc(Oc3cccc(NC(=O)c4ccc(OCCN5CCOCC5)cc4)c3)cc21 + COc1cccc2cc(-c3nc([C@H]4CC[C@H](C(=O)O)CC4)n4ncnc(N)c34)[nH]c12 [OSI-027] (partner 0.5 µM)
In a few lines: as §1

Compound in assay [3]: CCC1=CN=CN=C1N2CCN(CC2)CC3=NC4=C(N3)C=C(C=C4)C(F)(F)F + Cc1cc(Nc2cc(N3CCN(C)CC3)nc(Sc3ccc(NC(=O)C4CC4)cc3)n2)n[nH]1 [Tozasertib] (partner 0.1 µM)
The method in brief: as §1

Compound in assay [4]: N=C1NC(=O)/C(=C/c2ccc(O)cc2)S1 [Mirin] + O=C(CCCCCCC(=O)Nc1ccccc1)NO [Vorinostat] (partner 1 µM)
The method in brief:
as §1

Take NCI-H3122: the relative viability in assay [1] (first compound 0.25 µM) was 0.541; in assay [1] (first compound 0.7906 µM), 0.515; in assay [1] (first compound 2.5 µM), 0.576; in assay [1] (first compound 7.906 µM), 0.673; in assay [1] (first compound 25 µM), 0.7; in assay [2] (first compound 0.04 µM) it was 1.4. The relative viability in assay [2] (first compound 0.1265 µM) turned out to be 0.961; in assay [2] (first compound 0.4 µM), 0.729; in assay [2] (first compound 1.265 µM), 0.326; in assay [2] (first compound 4 µM) it was 0.737; in assay [3] (first compound 0.04 µM) it was 0.423; in assay [3] (first compound 0.1265 µM), 0.405. Also, the relative viability in assay [3] (first compound 0.4 µM) stood at 0.384; in assay [3] (first compound 1.265 µM), 0.345; in assay [3] (first compound 4 µM), 0.439; in assay [4] (first compound 0.25 µM), 1.06; in assay [4] (first compound 0.7906 µM), 1.01; in assay [4] (first compound 2.5 µM), 1.08. Also, the relative viability in assay [4] (first compound 7.906 µM) turned out to be 0.997; in assay [4] (first compound 25 µM), 1.05.
With PC-3 [JPC-3], the relative viability came out at 0.678 in assay [1] (first compound 0.25 µM); 0.73 in assay [1] (first compound 0.7906 µM); 0.731 in assay [1] (first compound 2.5 µM); 0.702 in assay [1] (first compound 7.906 µM); 0.706 in assay [1] (first compound 25 µM); 0.838 in assay [2] (first compound 0.04 µM). Also, the relative viability in assay [2] (first compound 0.1265 µM) was found to be 0.802; in assay [2] (first compound 0.4 µM), 0.701; in assay [2] (first compound 1.265 µM), 0.773; in assay [2] (first compound 4 µM), 0.656; in assay [3] (first compound 0.04 µM), 0.883; in assay [3] (first compound 0.1265 µM), 0.814. Moreover, the relative viability worked out at 0.844 in assay [3] (first compound 0.4 µM); 0.886 in assay [3] (first compound 1.265 µM); 0.776 in assay [3] (first compound 4 µM); 0.919 in assay [4] (first compound 0.25 µM); 0.722 in assay [4] (first compound 0.7906 µM); 0.81 in assay [4] (first compound 2.5 µM). For the same cell line, the relative viability in assay [4] (first compound 7.906 µM) came out at 0.86; in assay [4] (first compound 25 µM) it was 1.18.
Regarding PC-14, the relative viability is 0.658 in assay [1] (first compound 0.25 µM); 0.568 in assay [1] (first compound 0.7906 µM); 0.68 in assay [1] (first compound 2.5 µM); 0.797 in assay [1] (first compound 7.906 µM); 0.933 in assay [1] (first compound 25 µM); 0.796 in assay [2] (first compound 0.04 µM). Also, the relative viability worked out at 0.693 in assay [2] (first compound 0.1265 µM); 0.586 in assay [2] (first compound 0.4 µM); 0.715 in assay [2] (first compound 1.265 µM); 0.685 in assay [2] (first compound 4 µM); 0.599 in assay [3] (first compound 0.04 µM); 0.546 in assay [3] (first compound 0.1265 µM). For the same cell line, the relative viability in assay [3] (first compound 0.4 µM) was determined as 0.55; in assay [3] (first compound 1.265 µM), 0.502; in assay [3] (first compound 4 µM), 0.582; in assay [4] (first compound 0.25 µM), 0.798; in assay [4] (first compound 0.7906 µM), 0.638; in assay [4] (first compound 2.5 µM) it was 0.729. The relative viability in assay [4] (first compound 7.906 µM) was 0.719; in assay [4] (first compound 25 µM), 0.746.
For RERF-LC-KJ, the relative viability in assay [1] (first compound 0.25 µM) came to 0.716; in assay [1] (first compound 0.7906 µM), 0.518; in assay [1] (first compound 2.5 µM) it was 0.563; in assay [1] (first compound 7.906 µM), 0.594; in assay [1] (first compound 25 µM), 0.439; in assay [2] (first compound 0.04 µM), 0.625. For the same cell line, the relative viability turned out to be 0.496 in assay [2] (first compound 0.1265 µM); 0.38 in assay [2] (first compound 0.4 µM); 0.371 in assay [2] (first compound 1.265 µM); 0.389 in assay [2] (first compound 4 µM); 0.517 in assay [3] (first compound 0.04 µM); 0.503 in assay [3] (first compound 0.1265 µM). The relative viability is 0.464 in assay [3] (first compound 0.4 µM); 0.459 in assay [3] (first compound 1.265 µM); 0.398 in assay [3] (first compound 4 µM); 0.565 in assay [4] (first compound 0.25 µM); 0.816 in assay [4] (first compound 0.7906 µM); 0.686 in assay [4] (first compound 2.5 µM). In addition, the figures for the relative viability in assay [4] (first compound 7.906 µM) and in assay [4] (first compound 25 µM) were 0.709 and 0.664, respectively.
For SK-LU-1, the relative viability is 0.742 in assay [1] (first compound 0.25 µM); 0.555 in assay [1] (first compound 0.7906 µM); 0.588 in assay [1] (first compound 2.5 µM); 0.464 in assay [1] (first compound 7.906 µM); 0.328 in assay [1] (first compound 25 µM); 0.359 in assay [2] (first compound 0.04 µM). Moreover, the relative viability in assay [2] (first compound 0.1265 µM) is 0.322; in assay [2] (first compound 0.4 µM) it was 0.216; in assay [2] (first compound 1.265 µM), 0.199; in assay [2] (first compound 4 µM), 0.22; in assay [3] (first compound 0.04 µM) it was 0.326; in assay [3] (first compound 0.1265 µM), 0.334. For the same cell line, the relative viability in assay [3] (first compound 0.4 µM) turned out to be 0.362; in assay [3] (first compound 1.265 µM), 0.335; in assay [3] (first compound 4 µM), 0.274; in assay [4] (first compound 0.25 µM), 0.771; in assay [4] (first compound 0.7906 µM), 0.823; in assay [4] (first compound 2.5 µM) it was 0.815. Also, the relative viability in assay [4] (first compound 7.906 µM) was found to be 0.599; in assay [4] (first compound 25 µM) it was 0.6.
On to SK-MES-1, for which the relative viability in assay [1] (first compound 0.25 µM) came out at 0.319; in assay [1] (first compound 0.7906 µM), 0.376; in assay [1] (first compound 2.5 µM), 0.379; in assay [1] (first compound 7.906 µM), 0.502; in assay [1] (first compound 25 µM), 0.46; in assay [2] (first compound 0.04 µM), 0.651. Further, the relative viability in assay [2] (first compound 0.1265 µM) was found to be 0.601; in assay [2] (first compound 0.4 µM), 0.403; in assay [2] (first compound 1.265 µM), 0.386; in assay [2] (first compound 4 µM), 0.359; in assay [3] (first compound 0.04 µM), 0.893; in assay [3] (first compound 0.1265 µM), 0.872. For the same cell line, the relative viability in assay [3] (first compound 0.4 µM) amounted to 0.797; in assay [3] (first compound 1.265 µM) it was 0.918; in assay [3] (first compound 4 µM), 0.865; in assay [4] (first compound 0.25 µM) it was 1.12; in assay [4] (first compound 0.7906 µM), 1.46; in assay [4] (first compound 2.5 µM) it was 1.18. The relative viability in assay [4] (first compound 7.906 µM) is 1.12; in assay [4] (first compound 25 µM), 1.24.
Turning to SW 1573, the relative viability worked out at 0.473 in assay [1] (first compound 0.25 µM); 0.466 in assay [1] (first compound 2.5 µM); 0.355 in assay [1] (first compound 7.906 µM); 0.289 in assay [1] (first compound 25 µM); 0.835 in assay [2] (first compound 0.04 µM); 0.594 in assay [2] (first compound 0.1265 µM). Besides, the relative viability was 0.299 in assay [2] (first compound 0.4 µM); 0.326 in assay [2] (first compound 1.265 µM); 0.237 in assay [2] (first compound 4 µM); 0.205 in assay [3] (first compound 0.04 µM); 0.214 in assay [3] (first compound 0.1265 µM); 0.181 in assay [3] (first compound 0.4 µM). For the same cell line, the relative viability was 0.153 in assay [3] (first compound 1.265 µM); 0.203 in assay [3] (first compound 4 µM); 0.867 in assay [4] (first compound 0.25 µM); 0.772 in assay [4] (first compound 0.7906 µM); 0.765 in assay [4] (first compound 2.5 µM); 0.308 in assay [4] (first compound 7.906 µM). In assay [4] (first compound 25 µM), the relative viability stood at 0.56.
